Data: patent US10806726B2, “Methods of using indazole-3-carb oxamides and their use as Wnt/B-catenin signaling pathway inhibitors” (Samumed, LLC, priority 2016, dated 2020)

Tested on: TNFα production in THP-1 cells
Assay: Cytokine Production Assay, LPS-induced TNFα in THP-1 cells
Assay type: cell-based
Conditions: Homo sapiens; THP-1, LPS 50 ng/mL 5 hours, 2 independent assays; read-out: average EC50, inhibition of TNFα production
Protocol: THP-1 cells were cultured in basal media with 1% FBS for 24 hours before the start of the assay. THP-1 cells were plated at 6×10e^4 cells/well and treated with DMSO (vehicle control) or compound 175 at 10 μM highest test concentration and 2 to 3.5-fold serial dilutions up to 8 concentrations (10, 3.5, 1, 0.5, 0.1, 0.035, 0.01, 0.005 μM). For the TNFα assay, 50 ng/mL of LPS was added to the wells after 2 hours to induce cytokine production, and cells were incubated for 5 hours at 37° C. For the IL6 assay, 500 ng/ml of LPS was added after 2 hours and cells were incubated for 22 hours at 37° C. Plates were spun in a centrifuge for 1 minute at 10,000 rpm and supernatants were collected for ELISA. Supernatants were diluted 1:1 for the TNFα assay and 1:4 for the IL6 assay using the assay medium. ELISA was performed using Human TNF-α ELISA MAX™ Deluxe (Catalog #430204, Biolegend, San Diego, Calif.) and Human IL-6 ELISA MAX™ Deluxe (Catalog #430504, Biolegend, San Diego, Calif.) kits. […] Following several washes to remove unbound avidin-HRP, the TMB substrate was added and the plates were read on the Cytation 3 plate reader (Biotek Inc., Winooski, Vt.) at an absorbance of 450 nm with correction at 570 nm. […] Inhibition profile and EC50 was calculated using Prism 5 (GraphPad Software Inc, La Jolla, Calif., USA). […]

COc1ccc(NC(=O)c2n[nH]c3ccc(-c4cncc(CN5CCCCC5)c4)cc23)cn1 [compound 175, N-(6-Methoxypyridin-3-yl)-5-(5-(piperidin-1-ylmethyl)pyridin-3-yl)-1H-indazole-3-carboxamide]
EC50: 342 to 547 nM
